According to publication PMC5323493, “Synthesis and pre-clinical evaluation of a new class of high-affinity ^18F-labeled PSMA ligands for detection of prostate cancer by PET imaging” (European Journal of Nuclear Medicine and Molecular Imaging, 2016):
Where two headings read alike, the source gives them in different places. Marks after values point to notes of the source that are not given here.

Columns and labels:
LNCaP xenograft tumor [1] = experiment: μPET/CT imaging of LNCaP xenograft tumor-bearing mice; type: in vivo; settings: for Max. LNCaP Tumor Uptake Time p.i.: image derived; for Max. LNCaP Tumor Uptake: image derived calculation (ROI), at time of maximum uptake; for route of clearance: from μPET/CT images
Excerpt: (§1) All animal studies were approved by the Institutional Animal Care and Use Committee of Weill Cornell Medicine and were undertaken in accordance with the guidelines set forth by the USPHS Policy on Humane Care and Use of Laboratory Animals. Animals were housed under standard conditions in approved facilities with 12-h light/dark cycles. Food and water was provided ad libitum throughout the course of the studies. Male inbred athymic nu/nu mice were purchased from The Jackson Laboratory. For inoculation in mice, LNCaP cells were suspended at 4 x 10^7 cells/mL in a 1:1 mixture of PBS:Matrigel (BD Biosciences). Each mouse was injected in the left flank with 0.25 mL of the cell suspension. The mice were imaged when the tumors reached approximately 200–400 mm^3, while biodistributions were conducted when tumors were in the range 100–400 mm^3.
Specific activity was greater than 190 GBq/μmol. The mice were imaged by μPET/CT (Inveon™; Siemens Medical Solutions, Inc.) at 1 h, 2 h, 4 h and 6 h p.i. ([^18F]fluorinated compounds) or 1 h and 3 h p.i. ([^68Ga]Ga-PSMA-HBED-CC). Total acquisition time was thirty minutes, and a CT scan was obtained either immediately before or immediately after the acquisition for both anatomical co-registration and attenuation correction. The data were reconstructed using the commercial Inveon™ software supplied by the vendor. Tumor uptake was estimated by drawing a region of interest (ROI).

LNCaP xenograft tumor [2] = settings: cited from earlier work
PSMA = target: T1, PSMA (Homo sapiens, UniProt Q04609); experiment: competitive binding assay against 99mTc-MIP-1427 on LNCaP cells; settings: non-radioactive ligands, 1 nM 99mTc-MIP-1427, 1 h
T1 construct: host or cells: LNCaP
Experimental: The human prostate cancer cell line, LNCaP, was obtained from the American Type Culture Collection. Cell culture supplies were from Invitrogen unless otherwise noted. LNCaP cells were maintained in RPMI-1640 medium supplemented with 10 % fetal bovine serum (Hyclone), 4 mM L-glutamine, 1 mM sodium pyruvate, 10 mM N-2-hydroxyethylpiperazine-N-2-ethanesulfonic acid (HEPES), 2.5 mg/mL D-glucose, and 50 μg/mL gentamicin in a humidified incubator at 37 °C/5 % CO2. Cells were removed from flasks for passage or for transfer to 12-well assay plates by incubating them with 0.25 % trypsin/ethylenediaminetetraacetic acid (EDTA).
The 50 % inhibition concentrations (IC50 ) values of the non-radioactive fluorine-containing ligands were determined by screening in a multi-concentration competitive binding assay against ^99mTc- ((7S,12S,16S)-1-(1-(carboxymethyl)-1H-imidazol-2-yl)-2-((1-(carboxymethyl)-1H-imidazol-2-yl)methyl)-9,14-dioxo-2,8,13,15-tetraazaoctadecane-7,12,16,18-tetracarboxylic acid technetium tricarbonyl complex; ^99mTc-MIP-1427) for binding to PSMA on LNCaP cells, according to methods previously described. The LNCaP cells were plated 48 hours prior to the experiment to achieve a density of approximately 5 x 10^5 cells/well (in triplicate) in RPMI-1640 medium supplemented with 0.25 % bovine serum albumin prior to performing the assay. LNCaP cells were incubated for 1 hour with 1 nM ^99mTc-MIP-1427 in serum-free RPMI-1640 medium in the presence of 1–10,000 nM test compounds. Radioactive incubation media was then removed by pipette and the cells were washed twice using 1 mL of ice-cold HEPES buffer. Cells were harvested from the plates and transferred to tubes for radioactive counting using a Packard Cobra II gamma counter. IC50 values were determined by non-linear regression using GraphPad Prism software.

LNCaP xenograft tumor [3] = experiment: ex vivo biodistribution in LNCaP xenograft tumor-bearing mice; settings: for tumor uptake / Max. LNCaP Tumor Uptake: n = 5; for tumor uptake relative to [68Ga]Ga-PSMA-HBED-CC: at the time of maximum tumor uptake; for Max. LNCaP Tumor Uptake Time p.i. / Max. LNCaP Tumor Uptake: biodistribution
Excerpt: as §1
LNCaP xenograft tumor-bearing mice (n = 5 per time point) were injected via the tail vein with a bolus injection of 370 kBq (10 μCi) of either [^18F]RPS-040 or [^18F]RPS-041. The specific activity of the compounds was 341 GBq/μmol and 391 GBq/μmol, respectively. The mice were euthanized by asphyxiation under isofluorane at 1 h, 2 h and 4 h p.i. An additional set of mice (n = 5) was co-administered [^18F]RPS-040 (370 kBq; 10 μCi) and 2-PMPA (approx. 250 μg; 10 mg/kg) and sacrificed at 1 h p.i. to determine the uptake specificity. A full biodistribution study was conducted on all mice, and tissues were excised, weighed and counted in an automated γ-counter. Tissue time-activity values were expressed as percentage injected dose per gram of tissue (%ID/g). Statistical comparisons were performed using the standard Student’s t test for a 95 % confidence interval.

[4] = 1 h p.i., co-administered with 2-PMPA

T1 sequence (Q04609 whole entry): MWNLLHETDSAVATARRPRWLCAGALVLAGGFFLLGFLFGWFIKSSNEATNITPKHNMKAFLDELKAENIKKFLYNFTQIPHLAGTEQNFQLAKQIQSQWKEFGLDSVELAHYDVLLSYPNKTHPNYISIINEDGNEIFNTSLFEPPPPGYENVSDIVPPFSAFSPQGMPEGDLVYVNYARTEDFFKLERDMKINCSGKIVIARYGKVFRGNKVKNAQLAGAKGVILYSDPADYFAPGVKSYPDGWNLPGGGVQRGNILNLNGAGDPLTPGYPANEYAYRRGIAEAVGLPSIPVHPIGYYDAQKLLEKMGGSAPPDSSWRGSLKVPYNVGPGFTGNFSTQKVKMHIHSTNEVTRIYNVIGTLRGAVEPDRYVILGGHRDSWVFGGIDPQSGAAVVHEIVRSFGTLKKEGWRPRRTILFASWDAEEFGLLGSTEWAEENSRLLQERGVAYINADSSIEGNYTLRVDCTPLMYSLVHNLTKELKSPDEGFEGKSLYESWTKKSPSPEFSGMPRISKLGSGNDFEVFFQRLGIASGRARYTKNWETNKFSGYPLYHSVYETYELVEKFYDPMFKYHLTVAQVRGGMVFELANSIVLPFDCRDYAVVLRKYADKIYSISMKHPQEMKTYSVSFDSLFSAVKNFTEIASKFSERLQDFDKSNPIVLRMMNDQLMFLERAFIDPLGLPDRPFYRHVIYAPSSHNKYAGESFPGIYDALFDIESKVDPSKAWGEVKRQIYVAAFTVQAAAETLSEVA

## O=C(O)CCC(NC(=O)NC(CCCCNC(=O)c1ccc([18F])nc1)C(=O)O)C(=O)O (centres unmarked) [DCFPyL, 2-(3-{1-carboxy-5-[(6-[18F]fluoro-pyridine-3-carbonyl)-amino]-pentyl}-ureido)-pentanedioic acid, reference compound]
LNCaP xenograft tumor [1]
  Max. LNCaP Tumor Uptake Time p.i.: 1 h
  Max. LNCaP Tumor Uptake: 5.71 ± 0.61^c %ID/g
LNCaP xenograft tumor [2]; LNCaP tumor xenografts, 1 h p.i.
  maximum standardized uptake value (SUVmax): 1.1 ± 0.1

## O=C(O)CC[C@H](NC(=O)N[C@@H](CCCCNC(=O)Nc1ccc(I)cc1)C(=O)O)C(=O)O [MIP-1095]
PSMA
  IC50: 0.3 nM
LNCaP xenograft tumor [2]
  Max. LNCaP Tumor Uptake: 34.3 ± 12.7^a %ID/g
  Max. LNCaP Tumor Uptake Time p.i.: 4 h

## O=C(O)CC[C@H](NC(=O)N[C@@H](CCCCNC(=O)Nc1ccc(OCc2cn(CCF)nn2)cc1)C(=O)O)C(=O)O [RPS-038]
PSMA
  IC50: 21.3 nM
LNCaP xenograft tumor [1]
  Max. LNCaP Tumor Uptake Time p.i.: 2 h
  Max. LNCaP Tumor Uptake: 8.87 ± 0.64^c %ID/g

## O=C(O)CC[C@H](NC(=O)N[C@@H](CCCCNC(=O)Nc1ccccc1OCc1cn(CCF)nn1)C(=O)O)C(=O)O [RPS-039]
PSMA
  IC50: 14 nM
LNCaP xenograft tumor [1]
  route of clearance: clearance via the hepatobiliary pathway in addition to renal excretion
  Max. LNCaP Tumor Uptake Time p.i.: 2 h
  Max. LNCaP Tumor Uptake: 5.89 ± 0.27^c %ID/g

## O=C(O)CC[C@H](NC(=O)N[C@@H](CCCCNC(=O)Nc1cccc(-c2cn(CCF)nn2)c1)C(=O)O)C(=O)O [RPS-040]
PSMA
  IC50: 7 nM
LNCaP xenograft tumor [1]
  Max. LNCaP Tumor Uptake: 14.30 %ID/g
LNCaP xenograft tumor [3]; 1 h p.i.
  tumor-to-blood ratio: 28.8 ± 8.06
  tumor-to-blood ratio relative to [68Ga]Ga-PSMA-HBED-CC: three-fold greater
  tumor-to-kidney ratio relative to [68Ga]Ga-PSMA-HBED-CC: ten
LNCaP xenograft tumor [3]; [4]
  kidneys uptake: 5.95 ± 1.65 %ID/g
  spleen uptake: 0.32 ± 0.05 %ID/g
LNCaP xenograft tumor [3]; 1 h p.i., co-administered with 2-PMPA (10 mg/kg)
  tumor uptake: 1.75 ± 0.15 %ID/g
LNCaP xenograft tumor [3]; 1 h p.i., unblocked
  kidneys uptake: 74.24 ± 10.71 %ID/g
  spleen uptake: 4.97 ± 1.55 %ID/g
  tumor uptake: 12.69 ± 1.56 %ID/g
LNCaP xenograft tumor [3]; 2 h p.i.
  uptake in the kidneys: 60.94 ± 8.06 %ID/g
  uptake in the liver: 4.72 ± 0.93 %ID/g
  uptake in the spleen: 3.23 ± 1.26 %ID/g
  Max. LNCaP Tumor Uptake: 14.30 ± 2.49 %ID/g
LNCaP xenograft tumor [3]; 4 h p.i.
  tumor-to-blood ratio: 92.93 ± 75.67
LNCaP xenograft tumor [3]
  tumor uptake relative to [68Ga]Ga-PSMA-HBED-CC: more than two-fold greater
  Max. LNCaP Tumor Uptake Time p.i.: 2 h
LNCaP xenograft tumor [3]; 2 h p.i., listed as [^18F]RPS-040
  Max. LNCaP Tumor Uptake: > 10 %ID/g

## O=C(O)CC[C@H](NC(=O)N[C@@H](CCCCNC(=O)Nc1ccc(-c2cn(CCF)nn2)cc1)C(=O)O)C(=O)O [RPS-041]
PSMA
  IC50: 3.2 nM
LNCaP xenograft tumor [1]
  Max. LNCaP Tumor Uptake: 12.51 %ID/g
LNCaP xenograft tumor [3]; 1 h p.i.
  tumor-to-blood ratio: 20.78 ± 7.87
  tumor-to-blood ratio relative to [68Ga]Ga-PSMA-HBED-CC: more than two-fold
  tumor-to-kidney ratio relative to [68Ga]Ga-PSMA-HBED-CC: twelve-fold greater
LNCaP xenograft tumor [3]; 2 h p.i.
  contrast (tumor-to-background) relative to [18F]RPS-040: two-fold greater
  uptake in the kidneys: 23.93 ± 5.45 %ID/g
  uptake in the liver: 2.51 ± 0.21 %ID/g
  uptake in the spleen: 1.13 ± 0.47 %ID/g
  Max. LNCaP Tumor Uptake: 10.86 ± 1.03 %ID/g
LNCaP xenograft tumor [3]; 4 h p.i.
  tumor-to-blood ratio: 118.4 ± 69.4
LNCaP xenograft tumor [3]
  tumor uptake relative to [68Ga]Ga-PSMA-HBED-CC: nearly two-fold greater
  Max. LNCaP Tumor Uptake Time p.i.: 2 h
LNCaP xenograft tumor [3]; 2 h p.i., listed as [^18F]RPS-041
  Max. LNCaP Tumor Uptake: > 10 %ID/g

## O=C(O)CC[C@H](NC(=O)N[C@@H](CCCCNC(=O)Nc1ccccc1-c1cn(CCF)nn1)C(=O)O)C(=O)O [RPS-042]
PSMA
  IC50: 10.2 nM
LNCaP xenograft tumor [1]
  route of clearance: clearance via the hepatobiliary pathway in addition to renal excretion
  Max. LNCaP Tumor Uptake Time p.i.: 2 h
  Max. LNCaP Tumor Uptake: 10.06 ± 1.33^c %ID/g

## O=C(O)CC[C@H](NC(=O)N[C@@H](CCCCNC(=O)Nc1cccc(OCc2cn(CCF)nn2)c1)C(=O)O)C(=O)O [RPS-043]
PSMA
  IC50: 36.5 nM
LNCaP xenograft tumor [1]
  Max. LNCaP Tumor Uptake Time p.i.: 2 h
  Max. LNCaP Tumor Uptake: 9.04 ± 1.88^c %ID/g
